Measured values published in patent US7767665B2, “1,3-benzothiazinone derivatives and use thereof” (Takeda Pharmaceutical Company Limited, priority 2001, dated 2010).
Where a name gives a salt, the structure may show the parent alone.

Row | melting point | SMILES
1 | 238 °C (dec.) | Cl.NCCc1ccnc(-c2nc(=O)c3ccccc3s2)c1
2 | 240 °C | Cc1cccc2c(=O)nc(-c3cccc(C(=O)NCCCCCCN)n3)sc12.Cl
3 | 115.5 to 116.5 °C | CCOP(=O)(Cc1cccc(-c2nc(=O)c3ccccc3s2)n1)OCC
4 | 148.8 to 149.8 °C | CCOP(=O)(CCc1cccc(-c2nc(=O)c3ccccc3s2)n1)OCC
5 | 102 to 103.2 °C | CCOP(=O)(CCc1ccnc(-c2nc(=O)c3ccccc3s2)c1)OCC
6 | 137.7 to 139.1 °C | CCOP(=O)(CCc1ccnc(-c2nc(=O)c3ccc(Cl)cc3s2)c1)OCC
7 | 151 to 153 °C | O=c1nc(-c2cccc(CN3CCC(O)(c4ccc(Cl)cc4)CC3)n2)sc2ccccc12
8 | 219.4 to 221.4 °C | Cl.O=c1nc(-c2cc(C3CCCN3)ccn2)sc2ccccc12 (centres unmarked)
9 | 95.2 to 97.6 °C | NCCCCCCNC(=O)c1cccc(-c2nc(=O)c3ccccc3s2)n1 (as salt: hydrochloride) [Example 107, N-(6-Aminohexyl)-6-(4-oxo-4H-1,3-benzothiazin-2-yl)-2-pyridinecarboxamide hydrochloride]
10 | 184.5 to 186.5 °C | NCc1cccc(-c2nc(=O)c3ccccc3s2)n1 (as salt: trifluoroacetic acid salt) [Example 203, 2-[6-(Aminomethyl)-2-pyridyl]-4H-1,3-benzothiazine-4-one trifluoroacetic acid salt]
11 | 206.2 to 207.1 °C | NCCc1cccc(-c2nc(=O)c3ccccc3s2)n1 (as salt: trifluoroacetic acid salt) [Example 220, 2-[6-(2-Aminoethyl)-2-pyridyl]-4H-1,3-benzothiazine-4-one trifluoroacetic acid salt]
12 | 209 to 210.7 °C | NCCc1ccnc(-c2nc(=O)c3ccccc3s2)c1 (as salt: trifluoroacetic acid salt) [Example 221, 2-[4-(2-Aminoethyl)-2-pyridyl]-4H-1,3-benzothiazine-4-one trifluoroacetic acid salt]
13 | 212 °C (dec.) | NCCc1ccnc(-c2nc(=O)c3ccc(Cl)cc3s2)c1 (as salt: trifluoroacetic acid salt) [Example 223, 2-[4-(2-Aminoethyl)-2-pyridyl]-7-chloro-4H-1,3-benzothiazine-4-one trifluoroacetic acid salt]
14 | 187.5 to 189 °C | O=c1nc(-c2cc(C3CCCN3)ccn2)sc2ccccc12 (centres unmarked) (as salt: trifluoroacetic acid salt) [Example 353, 2-[4-(2-Pyrrolidinyl)-2-pyridyl]-4H-1,3-benzothiazine-4-one trifluoroacetic acid salt]
15 | 170 to 171.5 °C | O=c1nc(-c2ccco2)sc2ccccc12 [Example 1, 2-(2-Furyl)-4H-1,3-benzothiazine-4-one]
16 | 157.7 to 158.2 °C | O=c1nc(-c2cccs2)sc2ccccc12 [Example 2, 2-(2-Thienyl)-4H-1,3-benzothiazine-4-one]
17 | 262.7 to 263.4 °C | O=c1nc(-c2ccc3ccccc3n2)sc2ccccc12 [Example 3, 2-(2-Quinolinyl)-4H-1,3-benzothiazine-4-one]
18 | 216 to 217 °C | O=c1nc(-c2cnc3ccccc3c2)sc2ccccc12 [Example 4, 2-(3-Quinolinyl)-4H-1,3-benzothiazine-4-one]
19 | 167.9 to 168.2 °C | CC(C)(C)OC(=O)CCc1cccc(-c2nc(=O)c3ccc(Cl)cc3s2)n1 [Example 5, tert-Butyl 3-[6-(7-chloro-4-oxo-4H-1,3-benzothiazin-2-yl)-2-pyridyl]propanoate]

Row | melting point | SMILES
20 | 224.4 to 224.7 °C | O=C(O)CCc1cccc(-c2nc(=O)c3ccc(Cl)cc3s2)n1 [Example 6, 3-[6-(7-Chloro-4-oxo-4H-1,3-benzothiazin-2-yl)-2-pyridyl]propionic acid]
21 | 149.9 to 151.6 °C | Cc1cccnc1-c1nc(=O)c2ccccc2s1 [Example 8, 2-(3-Methyl-2-pyridyl)-4H-1,3-benzothiazine-4-one]
22 | 269.4 to 270.1 °C | O=c1nc(-c2ccccn2)sc2ccc(Cl)cc12 [Example 9, 6-Chloro-2-(2-pyridyl)-4H-1,3-benzothiazine-4-one]
23 | 253 to 253.7 °C | O=c1nc(-c2ccccn2)sc2ccc(Br)cc12 [Example 11, 6-Bromo-2-(2-pyridyl)-4H-1,3-benzothiazine-4-one]
24 | 197.8 to 198.5 °C | Cc1cccc2c(=O)nc(-c3ccccn3)sc12 [Example 12, 8-Methyl-2-(2-pyridyl)-4H-1,3-benzothiazine-4-one]
25 | 219.8 to 220.8 °C | Cc1ccc2sc(-c3ccccn3)nc(=O)c2c1 [Example 13, 6-Methyl-2-(2-pyridyl)-4H-1,3-benzothiazine-4-one]
26 | 236.3 to 237.5 °C | COc1cc2sc(-c3ccccn3)nc(=O)c2cc1OC [Example 14, 6,7-Dimethoxy-2-(2-pyridyl)-4H-1,3-benzothiazine-4-one]
27 | 202.4 to 203.2 °C | O=c1nc(-c2ccc[nH]2)sc2ccccc12 [Example 15, 2-(1H-Pyrrol-2-yl)-4H-1,3-benzothiazine-4-one]
28 | 194.3 to 195.7 °C | Cc1ccc(-c2nc(=O)c3ccccc3s2)n1C [Example 16, 2-(1,5-Dimethyl-1H-pyrrol-2-yl)-4H-1,3-benzothiazine-4-one]
29 | 150.8 to 151.3 °C | Cc1cccc2sc(-c3ccccn3)nc(=O)c12 [Example 17, 5-Methyl-2-(2-pyridyl)-4H-1,3-benzothiazine-4-one]
30 | 191.2 to 191.4 °C | COc1cccc2c(=O)nc(-c3ccccn3)sc12 [Example 18, 8-Methoxy-2-(2-pyridyl)-4H-1,3-benzothiazine-4-one]
31 | 234.7 to 234.9 °C | O=c1nc(-c2ccccn2)sc2ncccc12 [Example 22, 2-(2-Pyridyl)-4H-pyrido[3,2-e][1,3]thiazine-4-one]
32 | 245 to 245.8 °C | Cc1cc(C)c2sc(-c3ccccn3)nc(=O)c2c1 [Example 24, 6,8-Dimethyl-2-(2-pyridyl)-4H-1,3-benzothiazine-4-one]
33 | 214.1 to 214.6 °C | COc1ccnc(-c2nc(=O)c3ccccc3s2)c1 [Example 25, 2-(4-Methoxy-2-pyridyl)-4H-1,3-benzothiazine-4-one]
34 | 170 to 172.2 °C | CCOC(=O)c1cccc(-c2nc(=O)c3ccccc3s2)n1 [Example 26, Ethyl 6-(4-oxo-4H-1,3-benzothiazin-2-yl)-2-pyridinecarboxylate]
35 | 235.9 to 236.7 °C | CCOC(=O)c1ccnc(-c2nc(=O)c3ccccc3s2)c1 [Example 27, Ethyl 2-(4-oxo-4H-1,3-benzothiazin-2-yl)isonicotinate]
36 | 210.1 to 210.6 °C | CCCNc1ccc(-c2nc(=O)c3ccccc3s2)cn1 [Example 31, 2-[6-(Propylamino)-3-pyridyl]-4H-1,3-benzothiazine-4-one]
37 | 194.3 to 196.2 °C | O=c1nc(-c2ccc(NCc3ccccc3)nc2)sc2ccccc12 [Example 32, 2-[6-(Benzylamino)-3-pyridyl]-4H-1,3-benzothiazine-4-one]
38 | 221 to 223.1 °C | O=c1nc(-c2ccc(N3CCCC3)nc2)sc2ccccc12 [Example 33, 2-[6-(1-Pyrrolidinyl)-3-pyridyl]-4H-1,3-benzothiazine-4-one]
